Laboratory results reported in patent US9493487B2, “3-(1H-imidazo[4,5-C]pyridin-2-YL)-1H-pyrazolo[3,4-B]pyridine and therapeutic uses thereof” (Samumed, LLC, priority 2014, dated 2016).

test system: Wnt activity (Sp5-Luc reporter, SW480 colon carcinoma cells); test: Sp5-Luc Wnt reporter gene assay in SW480 colon carcinoma cells; format: cell-based; conditions: Homo sapiens; SW480 cells stably expressing Sp5-Luc reporter; 42 h incubation; BrightGlo luminescence normalized to DMSO
From the text: The screening assay for Wnt activity is described as follows. Reporter cell lines can be generated by stably transducing cancer cell lines (e.g., colon cancer) or primary cells (e.g., IEC-6 intestinal cells) with a lentiviral construct that includes a Wnt-responsive promoter driving expression of the firefly luciferase gene.
SW480 colon carcinoma cells were transduced with a lentiviral vector expressing luciferase with a human Sp5 promoter consisting of a sequence of eight TCF/LEF binding sites. SW480 cells stably expressing the Sp5-Luc reporter gene and a hygromycin resistance gene were selected by treatment with 150 μg/ml of hygromycin for 7 days. These stably transduced SW480 cells were expanded in cell culture and used for all further screening activities. For Sp5-Luc reporter gene assays, the cells were plated at 10,000 cells/well in 96-well plates with growth medium containing 10% fetal calf serum and incubated overnight at 37° C. and 5% CO2. Each compound was dissolved in DMSO as a 10 mM stock in standard j-vials and used to prepare compound source plates in dose-response format with 3-fold serial dilutions and a 10 mM top concentration. Compound transfer from serially diluted source plates to assay plates containing the cells was accomplished using a pintool (Multimek 96, Beckman equipped with V&P Scientific FP1S50H pins) based liquid handling protocol. This protocol used a slotted pin to transfer 50 nl of compound from a source plate well to an assay plate well containing 50 μl of cells in growth medium. […] Control wells received 50 nl of DMSO treatment for normalization and calculating IC50 values. The treated cells were incubated at 37° C. and 5% CO2 for an additional forty-two hours. Following incubation, the growth medium was removed and 50 μl of BrightGlo luminescence reagent (Promega) was added to each well of the 96-well assay plates. The plates were placed on an orbital shaker for 5 min and then luminescence was quantified on the Victor3 (Perkin Elmer) plate reader. Readings were normalized to DMSO only treated cells, and normalized activities were utilized for IC50 calculations using the dose-response log (inhibitor) vs. response-variable slope (four parameters) nonlinear regression feature available in GraphPad Prism 5.0 or 6.0.

`Fc1cccc(-c2nccc3[nH]c(-c4n[nH]c5ncc(-c6cncc(CN7CCC(F)(F)C7)c6)cc45)nc23)c1` [Compound 25, 5-(5-((3,3-Difluoropyrrolidin-1-yl)methyl)pyridin-3-yl)-3-(4-(3-fluorophenyl)-1H-imidazo[4,5-c]pyridin-2-yl)-1H-pyrazolo[3,4-b]pyridine] and `Oc1cncc(-c2cnc3[nH]nc(-c4nc5c(-c6cccc(F)c6)nccc5[nH]4)c3c2)c1` [Compound 897, 5-(3-(4-(3-Fluorophenyl)-1H-imidazo[4,5-c]pyridin-2-yl)-1H-pyrazolo[3,4-b]pyridin-5-yl)pyridin-3-ol] are within 1.5-fold of each other in IC50: 33.9 nM for the first, 23 nM for the second.

First: Fc1ccc(-c2nccc3[nH]c(-c4n[nH]c5ncc(-c6cncnc6)cc45)nc23)cc1 [Compound 52, 3-(4-(4-Fluorophenyl)-1H-imidazo[4,5-c]pyridin-2-yl)-5-(pyrimidin-5-yl)-1H-pyrazolo[3,4-b]pyridine]
Second: c1cncc(-c2cnc3[nH]nc(-c4nc5c(-c6cccnc6)nccc5[nH]4)c3c2)c1 [Compound 82, 5-(Pyridin-3-yl)-3-(4-(pyridin-3-yl)-1H-imidazo[4,5-c]pyridin-2-yl)-1H-pyrazolo[3,4-b]pyridine]
The IC50 of the first is 3.7-fold higher: 155 nM for the first, 41.9 nM for the second. The second is the more potent here.

Going from `c1cncc(-c2nccc3[nH]c(-c4n[nH]c5ncc(-c6cncc(CN7CCCCC7)c6)cc45)nc23)c1` [Compound 93, 5-(5-(Piperidin-1-ylmethyl)pyridin-3-yl)-3-(4-(pyridin-3-yl)-1H-imidazo[4,5-c]pyridin-2-yl)-1H-pyrazolo[3,4-b]pyridine] to `Fc1cccc(-c2nccc3[nH]c(-c4n[nH]c5ncc(-c6cncc(OCCN7CCCC7)c6)cc45)nc23)c1` [Compound 894, 3-(4-(3-Fluorophenyl)-1H-imidazo[4,5-c]pyridin-2-yl)-5-(5-(2-(pyrrolidin-1-yl)ethoxy)pyridin-3-yl)-1H-pyrazolo[3,4-b]pyridine], the IC50 falls from 3880 nM to 1500 nM (2.6-fold). The second is the more potent here.

Going from `O=C(Nc1cncc(-c2cnc3[nH]nc(-c4nc5c(-c6ccncc6)nccc5[nH]4)c3c2)c1)C1CCCCC1` [Compound 126, N-(5-(3-(4-(Pyridin-4-yl)-1H-imidazo[4,5-c]pyridin-2-yl)-1H-pyrazolo[3,4-b]pyridin-5-yl)pyridin-3-yl)cyclohexanecarboxamide] to `O=C(CC1CCCCC1)Nc1cncc(-c2cnc3[nH]nc(-c4nc5c(-c6cccc(F)c6)nccc5[nH]4)c3c2)c1` [Compound 899, 2-Cyclohexyl-N-(5-(3-(4-(3-fluorophenyl)-1H-imidazo[4,5-c]pyridin-2-yl)-1H-pyrazolo[3,4-b]pyridin-5-yl)pyridin-3-yl)acetamide], the IC50 rises from 1120 nM to 1970 nM (1.8-fold). The first is the more potent here.

First: Cc1cn(-c2nccc3[nH]c(-c4n[nH]c5ncc(-c6cncc(NC(=O)C(C)(C)C)c6)cc45)nc23)cn1 [Compound 190, N-(5-(3-(4-(4-Methyl-1H-imidazol-1-yl)-1H-imidazo[4,5-c]pyridin-2-yl)-1H-pyrazolo[3,4-b]pyridin-5-yl)pyridin-3-yl)pivalamide]
Second: CC(C)C(=O)Nc1cncc(-c2cnc3[nH]nc(-c4nc5c(N6CCN(C)CC6)nccc5[nH]4)c3c2)c1 [Compound 217, N-(5-(3-(4-(4-Methylpiperazin-1-yl)-1H-imidazo[4,5-c]pyridin-2-yl)-1H-pyrazolo[3,4-b]pyridin-5-yl)pyridin-3-yl)isobutyramide]
The IC50 of the first is 2.3-fold higher: 1580 nM for the first, 673 nM for the second.

Compared with `CN1CCN(c2nccc3[nH]c(-c4n[nH]c5ncc(-c6cncc(NC(=O)C7CCCC7)c6)cc45)nc23)CC1` [Compound 229, N-(5-(3-(4-(4-Methylpiperazin-1-yl)-1H-imidazo[4,5-c]pyridin-2-yl)-1H-pyrazolo[3,4-b]pyridin-5-yl)pyridin-3-yl)cyclopentanecarboxamide], `CN1CCN(c2nccc3[nH]c(-c4n[nH]c5ncc(-c6cncnc6)cc45)nc23)CC1` [Compound 234, 3-(4-(4-Methylpiperazin-1-yl)-1H-imidazo[4,5-c]pyridin-2-yl)-5-(pyrimidin-5-yl)-1H-pyrazolo[3,4-b]pyridine] is 8.7-fold lower in IC50: 1550 nM for the first, 179 nM for the second. The second is the more potent here.

Compared with `CCNCc1cncc(-c2cnc3[nH]nc(-c4nc5c(-c6ccoc6)nccc5[nH]4)c3c2)c1` [Compound 266, N-((5-(3-(4-(Furan-3-yl)-1H-imidazo[4,5-c]pyridin-2-yl)-1H-pyrazolo[3,4-b]pyridin-5-yl)pyridin-3-yl)methyl)ethanamine], `CCCCC(=O)Nc1cncc(-c2cnc3[nH]nc(-c4nc5c(-c6ccoc6)nccc5[nH]4)c3c2)c1` [Compound 278, N-(5-(3-(4-(Furan-3-yl)-1H-imidazo[4,5-c]pyridin-2-yl)-1H-pyrazolo[3,4-b]pyridin-5-yl)pyridin-3-yl)pentanamide] is 6.1-fold lower in IC50: 339 nM for the first, 56 nM for the second. The second is the more potent here.

`CCCC(=O)Nc1cncc(-c2cnc3[nH]nc(-c4nc5c(-c6cc(F)cc(CNS(C)(=O)=O)c6)nccc5[nH]4)c3c2)c1` [Compound 407, N-(5-(3-(4-(3-Fluoro-5-(methylsulfonamidomethyl)phenyl)-1H-imidazo[4,5-c]pyridin-2-yl)-1H-pyrazolo[3,4-b]pyridin-5-yl)pyridin-3-yl)butyramide] and `CC(C)CC(=O)Nc1cncc(-c2cnc3[nH]nc(-c4nc5c(-c6cc(O)cc(F)c6)nccc5[nH]4)c3c2)c1` [Compound 1280, N-(5-(3-(4-(3-Fluoro-5-hydroxyphenyl)-1H-imidazo[4,5-c]pyridin-2-yl)-1H-pyrazolo[3,4-b]pyridin-5-yl)pyridin-3-yl)-3-methylbutanamide] are within 1.5-fold of each other in IC50: 74.1 nM for the first, 90 nM for the second.

First: CS(=O)(=O)NCc1cc(F)cc(-c2nccc3[nH]c(-c4n[nH]c5ncc(-c6cncc(CNCc7ccccc7)c6)cc45)nc23)c1 [Compound 413, N-(3-(2-(5-(5-((Benzylamino)methyl)pyridin-3-yl)-1H-pyrazolo[3,4-b]pyridin-3-yl)-1H-imidazo[4,5-c]pyridin-4-yl)-5-fluorobenzyl)methanesulfonamide]
Second: Fc1cccc(-c2nccc3[nH]c(-c4n[nH]c5ncc(-c6cncc(OCc7ccccc7)c6)cc45)nc23)c1 [Compound 898, 5-(5-(Benzyloxy)pyridin-3-yl)-3-(4-(3-fluorophenyl)-1H-imidazo[4,5-c]pyridin-2-yl)-1H-pyrazolo[3,4-b]pyridine]
The IC50 of the first is 23-fold lower: 143 nM for the first, 3260 nM for the second.

Going from `Fc1cccc(-c2nccc3[nH]c(-c4n[nH]c5ncc(C6=CCNCC6)cc45)nc23)c1` [Compound 886, 3-(4-(3-Fluorophenyl)-1H-imidazo[4,5-c]pyridin-2-yl)-5-(1,2,3,6-tetrahydropyridin-4-yl)-1H-pyrazolo[3,4-b]pyridine] to `Fc1cccc(-c2nccc3[nH]c(-c4n[nH]c5ncc(-c6ccccn6)cc45)nc23)c1` [Compound 901, 3-(4-(3-Fluorophenyl)-1H-imidazo[4,5-c]pyridin-2-yl)-5-(pyridin-2-yl)-1H-pyrazolo[3,4-b]pyridine], the IC50 rises from 3700 nM to over 10000 nM.

Going from `Fc1cccc(-c2nccc3[nH]c(-c4n[nH]c5ncc(-c6cncc(OC7CCCCC7)c6)cc45)nc23)c1` [Compound 891, 5-(5-(Cyclohexyloxy)pyridin-3-yl)-3-(4-(3-fluorophenyl)-1H-imidazo[4,5-c]pyridin-2-yl)-1H-pyrazolo[3,4-b]pyridine] to `COc1cc(F)cc(-c2nccc3[nH]c(-c4n[nH]c5ncc(-c6cncc(NC(=O)CC(C)C)c6)cc45)nc23)c1` [Compound 1324, N-(5-(3-(4-(3-Fluoro-5-methoxyphenyl)-1H-imidazo[4,5-c]pyridin-2-yl)-1H-pyrazolo[3,4-b]pyridin-5-yl)pyridin-3-yl)-3-methylbutanamide], the IC50 falls from 935 nM to 85 nM (11-fold).

`CC(C)CC(=O)Nc1cncc(-c2cnc3[nH]nc(-c4nc5c(-c6cc(F)cc(OCCN(C)C)c6)nccc5[nH]4)c3c2)c1` [Compound 1192, N-(5-(3-(4-(3-(2-(Dimethylamino)ethoxy)-5-fluorophenyl)-1H-imidazo[4,5-c]pyridin-2-yl)-1H-pyrazolo[3,4-b]pyridin-5-yl)pyridin-3-yl)-3-methylbutanamide] and `CC(C)CC(=O)Nc1cncc(-c2cnc3[nH]nc(-c4nc5c(-c6cc(F)cc(OCCN7CCCC7)c6)nccc5[nH]4)c3c2)c1` [Compound 1236, N-(5-(3-(4-(3-Fluoro-5-(2-(pyrrolidin-1-yl)ethoxy)phenyl)-1H-imidazo[4,5-c]pyridin-2-yl)-1H-pyrazolo[3,4-b]pyridin-5-yl)pyridin-3-yl)-3-methylbutanamide] are within 1.5-fold of each other in IC50: 400 nM for the first, 445 nM for the second.
